What follows are compounds tested on HCT116 cells (assay: HCT116 cytotoxic activity assay (Alamar Blue, 72 h)). Conditions: Homo sapiens, HCT-116, 72 h compound exposure, greater than 500 nM but less than or equal to 2 μM.
Format: cell-based
Protocol: Representative compounds of this invention were tested for cytotoxicity using the above-described assay procedure with the following results: […]

Compound | IC50
N#Cc1cc(Oc2ccc(Nc3cc(-c4cccs4)nc(N)n3)cc2)ccn1 [Example 239, 4-(4-{[2-amino-6-(2-thienyl)pyrimidin-4-yl]amino}phenoxy) pyridine-2-carbonitrile] | 0.5 to 2 µM
N#Cc1cc(Oc2ccc(Nc3cc(-c4ccc(Cl)cc4)nc(N)n3)cc2)ccn1 [Example 242, 4-(4-{[2-amino-6-(4-chlorophenyl)pyrimidin-4-yl]amino}phenoxy) pyridine-2-carbonitrile] | 0.5 to 2 µM
N#Cc1cc(Oc2ccc(Nc3cc(-c4ccccc4N)nc(N)n3)cc2)ccn1 [Example 243, 4-(4-{[2-amino-6-(2-aminophenyl)pyrimidin-4-yl]amino}phenoxy) pyridine-2-carbonitrile] | 0.5 to 2 µM
COc1ccc(C(C)C)cc1-c1cc(Nc2ccc(Oc3ccnc(C#N)c3)cc2)nc(N)n1 [Example 245, 4-(4-{[2-amino-6-(5-isopropyl-2-methoxyphenyl)pyrimidin-4-yl]amino}phenoxy)pyridine-2-carbonitrile] | 0.5 to 2 µM
N#Cc1cc(Oc2ccc(Nc3cc(-c4ccc(F)cc4F)nc(N)n3)cc2)ccn1 [Example 247, 4-(4-{[2-amino-6-(2,4-difluorophenyl)pyrimidin-4-yl]amino}phenoxy)pyridine-2-carbonitrile] | 0.5 to 2 µM
N#Cc1cc(Oc2ccc(Nc3cc(-c4cccc(CO)c4)nc(N)n3)cc2)ccn1 [Example 248, 4-[4-({2-amino-6-[3-(hydroxymethyl)phenyl]pyrimidin-4-yl}amino)phenoxy]pyridine-2-carbonitrile] | 0.5 to 2 µM
NC(=O)c1cc(Oc2ccc(Nc3cc(-c4cccc(F)c4)nc(N)n3)cc2)ccn1 [Example 256, 4-(4-{[2-amino-6-(3-fluorophenyl)pyrimidin-4-yl]amino}phenoxy) pyridine-2-carboxamide] | 0.5 to 2 µM
NC(=O)c1cc(Oc2ccc(Nc3cc(-c4ccc(Cl)cc4)nc(N)n3)cc2)ccn1 [Example 257, 4-(4-{[2-amino-6-(4-chlorophenyl)pyrimidin-4-yl]amino}phenoxy) pyridine-2-carboxamide] | 0.5 to 2 µM
NC(=O)c1cc(Oc2ccc(Nc3cc(-c4cccc(C(F)(F)F)c4)nc(N)n3)cc2)ccn1 [Example 258, 4-[4-({2-amino-6-[3-(trifluoromethyl)phenyl]pyrimidin-4-yl}amino)phenoxy]pyridine-2-carboxamide] | 0.5 to 2 µM

Same assay, conditions: Homo sapiens, HCT-116, 72 h compound exposure, greater than 2 μM

Compound | IC50
COc1ncc(-c2cc(Nc3ccc(Oc4ccnc(C#N)c4)cc3)nc(N)n2)c(OC)n1 [Example 237, 4-{4-[(2-amino-2′,4′-dimethoxy-4,5′-bipyrimidin-6-yl)amino]phenoxy} pyridine-2-carbonitrile] | > 2 µM
N#Cc1cc(Oc2ccc(Nc3cc(-c4cccc(C(F)(F)F)c4)nc(N)n3)cc2)ccn1 [Example 244, 4-[4-({2-amino-6-[3-(trifluoromethyl)phenyl]pyrimidin-4-yl}amino)phenoxy]pyridine-2-carbonitrile] | > 2 µM
N#Cc1cc(Oc2ccc(Nc3cc(-c4ccc(Cl)c(Cl)c4)nc(N)n3)cc2)ccn1 [Example 253, 4-(4-{[2-amino-6-(3,4-dichlorophenyl)pyrimidin-4-yl]amino}phenoxy)pyridine-2-carbonitrile] | > 2 µM
NC(=O)c1cc(Oc2ccc(Nc3cc(-c4cccs4)nc(N)n3)cc2)ccn1 [Example 255, 4-(4-{[2-amino-6-(2-thienyl)pyrimidin-4-yl]amino}phenoxy) pyridine-2-carboxamide] | > 2 µM
NC(=O)c1cc(Oc2ccc(Nc3cc(-c4ccc(-c5ccccc5)c(F)c4)nc(N)n3)cc2)ccn1 [Example 260, 4-(4-{[2-amino-6-(2-fluorobiphenyl-4-yl)pyrimidin-4-yl]amino}phenoxy) pyridine-2-carboxamide] | > 2 µM
NC(=O)c1cc(Oc2ccc(Nc3cc(-c4cccc(CO)c4)nc(N)n3)cc2)ccn1 [Example 265, 4-[4-({2-amino-6-[3-(hydroxymethyl)phenyl]pyrimidin-4-yl}amino)phenoxy]pyridine-2-carboxamide] | > 2 µM
CC(C)c1cccc(-c2cc(Nc3ccc(Oc4ccnc(C(N)=O)c4)cc3)nc(N)n2)c1 [Example 270, 4-(4-{[2-amino-6-(3-isopropylphenyl)pyrimidin-4-yl]amino}phenoxy) pyridine-2-carboxamide] | > 2 µM
NC(=O)c1cc(Oc2ccc(Nc3cc(-c4ccc(Cl)c(Cl)c4)nc(N)n3)cc2)ccn1 [Example 272, 4-(4-{[2-amino-6-(3,4-dichlorophenyl)pyrimidin-4-yl]amino}phenoxy)pyridine-2-carboxamide] | > 2 µM
N#Cc1cc(Oc2ccc(Nc3cc(-c4cccc(OC(F)(F)F)c4)nc(N)n3)cc2)ccn1 [Example 274, 4-[4-({2-amino-6-[3-(trifluoromethoxy)phenyl]pyrimidin-4-yl}amino)phenoxy]pyridine-2-carbonitrile] | > 2 µM

Same assay, conditions: Homo sapiens, HCT-116, 72 h compound exposure, less than or equal to 500 nM

Compound | IC50
N#Cc1cc(Oc2ccc(Nc3cc(-c4cccc(N)c4)nc(N)n3)cc2)ccn1 [Example 238, 4-(4-{[2-amino-6-(3-aminophenyl)pyrimidin-4-yl]amino}phenoxy) pyridine-2-carbonitrile] | ≤ 0.5 µM
N#Cc1cc(Oc2ccc(Nc3cc(-c4cccc(F)c4)nc(N)n3)cc2)ccn1 [Example 240, 4-(4-{[2-amino-6-(3-fluorophenyl)pyrimidin-4-yl]amino}phenoxy) pyridine-2-carbonitrile] | ≤ 0.5 µM
N#Cc1cc(Oc2ccc(Nc3cc(-c4ccccc4F)nc(N)n3)cc2)ccn1 [Example 241, 4-(4-{[2-amino-6-(2-fluorophenyl)pyrimidin-4-yl]amino}phenoxy) pyridine-2-carbonitrile] | ≤ 0.5 µM
Cc1ccccc1-c1cc(Nc2ccc(Oc3ccnc(C#N)c3)cc2)nc(N)n1 [Example 246, 4-(4-{[2-amino-6-(2-methylphenyl)pyrimidin-4-yl]amino}phenoxy) pyridine-2-carbonitrile] | ≤ 0.5 µM
Cc1ccc(-c2cc(Nc3ccc(Oc4ccnc(C#N)c4)cc3)nc(N)n2)cc1 [Example 249, 4-(4-{[2-amino-6-(4-methylphenyl)pyrimidin-4-yl]amino}phenoxy) pyridine-2-carbonitrile] | ≤ 0.5 µM
Cc1cccc(-c2cc(Nc3ccc(Oc4ccnc(C#N)c4)cc3)nc(N)n2)c1 [Example 250, 4-(4-{[2-amino-6-(3-methylphenyl)pyrimidin-4-yl]amino}phenoxy) pyridine-2-carbonitrile] | ≤ 0.5 µM
N#Cc1cc(Oc2ccc(Nc3cc(-c4ccsc4)nc(N)n3)cc2)ccn1 [Example 251, 4-(4-{[2-amino-6-(3-thienyl)pyrimidin-4-yl]amino}phenoxy) pyridine-2-carbonitrile] | ≤ 0.5 µM
Cc1ccc(-c2cc(Nc3ccc(Oc4ccnc(C#N)c4)cc3)nc(N)n2)cc1N [Example 252, 4-(4-{[2-amino-6-(3-amino-4-methylphenyl)pyrimidin-4-yl]amino}phenoxy)pyridine-2-carbonitrile] | ≤ 0.5 µM
NC(=O)c1cc(Oc2ccc(Nc3cc(-c4cccc(N)c4)nc(N)n3)cc2)ccn1 [Example 254, 4-(4-{[2-amino-6-(3-aminophenyl)pyrimidin-4-yl]amino}phenoxy) pyridine-2-carboxamide] | ≤ 0.5 µM
CCCCc1ccc(-c2cc(Nc3ccc(Oc4ccnc(C(N)=O)c4)cc3)nc(N)n2)cc1 [Example 259, 4-(4-{[2-amino-6-(4-butylphenyl)pyrimidin-4-yl]amino}phenoxy) pyridine-2-carboxamide] | ≤ 0.5 µM
CCc1cccc(-c2cc(Nc3ccc(Oc4ccnc(C(N)=O)c4)cc3)nc(N)n2)c1 [Example 261, 4-(4-{[2-amino-6-(3-ethylphenyl)pyrimidin-4-yl]amino}phenoxy) pyridine-2-carboxamide] | ≤ 0.5 µM
COc1ccc(C(C)C)cc1-c1cc(Nc2ccc(Oc3ccnc(C(N)=O)c3)cc2)nc(N)n1 [Example 262, 4-(4-{[2-amino-6-(5-isopropyl-2-methoxyphenyl)pyrimidin-4-yl]amino}phenoxy)pyridine-2-carboxamide] | ≤ 0.5 µM
Cc1ccccc1-c1cc(Nc2ccc(Oc3ccnc(C(N)=O)c3)cc2)nc(N)n1 [Example 263, 4-(4-{[2-amino-6-(2-methylphenyl)pyrimidin-4-yl]amino}phenoxy) pyridine-2-carboxamide] | ≤ 0.5 µM
NC(=O)c1cc(Oc2ccc(Nc3cc(-c4ccc(F)cc4F)nc(N)n3)cc2)ccn1 [Example 264, 4-(4-{[2-amino-6-(2,4-difluorophenyl)pyrimidin-4-yl]amino}phenoxy)pyridine-2-carboxamide] | ≤ 0.5 µM
CC(C)c1ccc(-c2cc(Nc3ccc(Oc4ccnc(C(N)=O)c4)cc3)nc(N)n2)cc1 [Example 266, 4-(4-{[2-amino-6-(4-isopropylphenyl)pyrimidin-4-yl]amino}phenoxy) pyridine-2-carboxamide] | ≤ 0.5 µM
Cc1ccc(-c2cc(Nc3ccc(Oc4ccnc(C(N)=O)c4)cc3)nc(N)n2)cc1 [Example 267, 4-(4-{[2-amino-6-(4-methylphenyl)pyrimidin-4-yl]amino}phenoxy) pyridine-2-carboxamide] | ≤ 0.5 µM
Cc1cccc(-c2cc(Nc3ccc(Oc4ccnc(C(N)=O)c4)cc3)nc(N)n2)c1 [Example 268, 4-(4-{[2-amino-6-(3-methylphenyl)pyrimidin-4-yl]amino}phenoxy) pyridine-2-carboxamide] | ≤ 0.5 µM
NC(=O)c1cc(Oc2ccc(Nc3cc(-c4ccsc4)nc(N)n3)cc2)ccn1 [Example 269, 4-(4-{[2-amino-6-(3-thienyl)pyrimidin-4-yl]amino}phenoxy) pyridine-2-carboxamide] | ≤ 0.5 µM
Cc1ccc(-c2cc(Nc3ccc(Oc4ccnc(C(N)=O)c4)cc3)nc(N)n2)cc1N [Example 271, 4-(4-{[2-amino-6-(3-amino-4-methylphenyl)pyrimidin-4-yl]amino}phenoxy)pyridine-2-carboxamide] | ≤ 0.5 µM
CCOc1cccc(-c2cc(Nc3ccc(Oc4ccnc(C(N)=O)c4)cc3)nc(N)n2)c1 [Example 273, 4-(4-{[2-amino-6-(3-ethoxyphenyl)pyrimidin-4-yl]amino}phenoxy) pyridine-2-carboxamide] | ≤ 0.5 µM
